Test results as given in patent US9376376B2, “Substitute diphenylamine compounds use thereof as antitumor agents” (SINOCHEM CORPORATION, priority 2012, dated 2016).

How the values were obtained:
[1] = test system: non-small cell lung cancer A549 cells; assay: In vitro cell inhibition assay, CCK-8 method, A549; type: cell-based, human; details: 48 h incubation
Description: (§1) After the cell culture flasks gently shaking, culture fluid was discarded in clean bench. […] Cells were collected and transferred to centrifuge tube. For the non-adherent cells HL-60, CCRF-CEM and MOLT-4, cell flasks were picked up from incubator and then transferred to the centrifuge tubes directly. After cells were collected using centrifuge at 1000 rpm/min for 5 min, the fluid was discarded. Then cells were washed for one time by PBS, discard fluid. Then add some medium, count cells under inverted microscope using blood cell counting plate, according the counting number to making the density of adherent cell was 1×10^5 cells/mL, the non-adherent cell was 2×10^5 cells/mL (the volumes of HL-60, CCRF-CEM, MOLT-4 are smaller than non-adherent cells, these cells added to each well was much more higher). Add 50 μL aliquots to each well of 96-well plates (the density of adherent cells was 5000 cells/well, non-adherent cells was 10000 cells/well). Blank control, Negative control, blank control with compounds and positive control wells were grouped, and three replicate wells were used for each data point in the experiments. Then the cells were cultured in 5% incubator for overnight at 37° C., Then the different concentration compounds were added to each well. After incubation for 48 h, according to the manufacturer's instructions, CCK-8 reagent (10 μl) was added and incubation was continued for a further 2-4 h. The absorbance (A) of each well was read at 450 nm using a plate reader.

leukemia HL-60 cells = assay: In vitro cell inhibition assay, CCK-8 method, HL-60; type: cell-based, human; details: HL-60 cells, CCK-8 method
Description: as §1

colon cancer COLO-205 = assay: In vitro cell inhibition assay, CCK-8 method, COLO-205; details: Homo sapiens, COLO 205, read-out: The half maximal inhibitory concentration (IC50)

| Structure (SMILES) | Proliferation inhibitory effect of the compounds on A549 cells (% of Control) ([1]; CCK-8, 0.01 μM) | Proliferation inhibitory effect of the compounds on A549 cells (% of Control) ([1]; CCK-8, 0.1 μM) | Proliferation inhibitory effect of the compounds on A549 cells (% of Control) ([1]; CCK-8, 1 μM) | Proliferation inhibitory effect of the compounds on A549 cells (% of Control) ([1]; CCK-8, 10 μM) | Proliferation inhibitory effect of the compounds on A549 cells (% of Control) ([1]; CCK-8, 100 μM) | Proliferation inhibitory effect of the compounds on HL-60 cells (% of Control) (leukemia HL-60 cells; concentration 0.01 μM) | Proliferation inhibitory effect of the compounds on HL-60 cells (% of Control) (leukemia HL-60 cells; concentration 0.1 μM) | Proliferation inhibitory effect of the compounds on HL-60 cells (% of Control) (leukemia HL-60 cells; concentration 1 μM) | Proliferation inhibitory effect of the compounds on HL-60 cells (% of Control) (leukemia HL-60 cells; concentration 10 μM) | Proliferation inhibitory effect of the compounds on HL-60 cells (% of Control) (leukemia HL-60 cells; concentration 100 μM) | also measured |
| --- | --- | --- | --- | --- | --- | --- | --- | --- | --- | --- | --- |
| N#Cc1c(Cl)c(Cl)c(Nc2ccc(C(F)(F)F)cc2)c(C#N)c1Cl [Compound 6-24] | 22.06 % of Control | 24.27 % of Control | 31.44 % of Control | 60.31 % of Control | 87.36 % of Control | 0.00 % of Control | 17.55 % of Control | 48.39 % of Control | 56.72 % of Control | 95.11 % of Control | – |
| COC(=O)c1ccc(Nc2c(Cl)c(Cl)c(C#N)c(Cl)c2C#N)cc1 [Compound 6-25] | 15.66 % of Control | 18.59 % of Control | 17.11 % of Control | 55.87 % of Control | 81.32 % of Control | 11.52 % of Control | 42.54 % of Control | 84.06 % of Control | 92.02 % of Control | 84.30 % of Control | – |
| N#Cc1c(Cl)c(Cl)c(Nc2ccc(Cl)c(Cl)c2)c(C#N)c1Cl [Compound 6-43] | – | – | – | – | – | 23.65 % of Control | 31.60 % of Control | 38.45 % of Control | 73.80 % of Control | 78.53 % of Control | – |
| N#Cc1c(Cl)c(Cl)c(Nc2ccc(Br)cc2Cl)c(C#N)c1Cl [Compound 6-45] | – | – | – | – | – | 0.00 % of Control | 27.78 % of Control | 39.89 % of Control | 52.09 % of Control | 80.30 % of Control | – |
| N#Cc1c(Cl)c(Cl)c(Nc2ccc(C(F)(F)F)cc2Cl)c(C#N)c1Cl [Compound 6-47] | 42.56 % of Control | 49.86 % of Control | 53.58 % of Control | 55.57 % of Control | 99.91 % of Control | 7.02 % of Control | 34.70 % of Control | 41.47 % of Control | 83.33 % of Control | 98.51 % of Control | – |
| N#Cc1c(Cl)c(Cl)c(Nc2c(Cl)cc(C(F)(F)F)cc2Cl)c(C#N)c1Cl [Compound 6-95] | 39.65 % of Control | 56.27 % of Control | 78.63 % of Control | 97.88 % of Control | 98.69 % of Control | 0.00 % of Control | 43.28 % of Control | 94.76 % of Control | 94.99 % of Control | 96.40 % of Control | – |
| COC(=O)c1cc(Cl)c(Nc2c(Cl)c(Cl)c(C#N)c(Cl)c2C#N)c(Cl)c1 [Compound 6-100] | 43.98 % of Control | 50.53 % of Control | 52.15 % of Control | 57.45 % of Control | 89.94 % of Control | 14.24 % of Control | 26.90 % of Control | 39.47 % of Control | 49.85 % of Control | 97.42 % of Control | – |
| N#Cc1c(Cl)c(Cl)c(Nc2c(Br)cc(OC(F)(F)F)cc2Br)c(C#N)c1Cl [Compound 6-111] | 23.15 % of Control | 29.42 % of Control | 53.14 % of Control | 80.03 % of Control | 99.83 % of Control | 13.70 % of Control | 41.52 % of Control | 79.31 % of Control | 95.16 % of Control | 99.28 % of Control | – |
| N#Cc1c(Cl)c(Cl)c(Nc2c(Br)cc(Br)cc2Br)c(C#N)c1Cl [Compound 6-112] | – | – | – | – | – | – | – | – | – | – | inhibition at 0.01 µM ([1]; Homo sapiens, A549, CCK-8, 0.01 μM, read-out: Proliferation inhibitory effect of the compounds on A549 cells (% of Control)): 46.5%; inhibition at 0.1 µM ([1]; Homo sapiens, A549, CCK-8, 0.1 μM, read-out: Proliferation inhibitory effect of the compounds on A549 cells (% of Control)): 47.2%; inhibition at 1 µM ([1]; Homo sapiens, A549, CCK-8, 1 μM, read-out: Proliferation inhibitory effect of the compounds on A549 cells (% of Control)): 76.9%; inhibition at 10 µM ([1]; Homo sapiens, A549, CCK-8, 10 μM, read-out: Proliferation inhibitory effect of the compounds on A549 cells (% of Control)): 89.3%; inhibition at 100 µM ([1]; Homo sapiens, A549, CCK-8, 100 μM, read-out: Proliferation inhibitory effect of the compounds on A549 cells (% of Control)): 99.3%; inhibition at 0.01 µM (leukemia HL-60 cells; Homo sapiens, concentration 0.01 μM, read-out: Proliferation inhibitory effect of the compounds on HL-60 cells (% of Control)): 48.3%; inhibition at 0.1 µM (leukemia HL-60 cells; Homo sapiens, concentration 0.1 μM, read-out: Proliferation inhibitory effect of the compounds on HL-60 cells (% of Control)): 59.5%; inhibition at 1 µM (leukemia HL-60 cells; Homo sapiens, concentration 1 μM, read-out: Proliferation inhibitory effect of the compounds on HL-60 cells (% of Control)): 91.5%; inhibition at 10 µM (leukemia HL-60 cells; Homo sapiens, concentration 10 μM, read-out: Proliferation inhibitory effect of the compounds on HL-60 cells (% of Control)): 97.6%; inhibition at 100 µM (leukemia HL-60 cells; Homo sapiens, concentration 100 μM, read-out: Proliferation inhibitory effect of the compounds on HL-60 cells (% of Control)): 96.5% |
| N#Cc1c(Cl)c(Cl)c(Nc2c(Cl)cc(Br)cc2Cl)c(C#N)c1Cl [Compound 6-201] | 14.31 % of Control | 19.63 % of Control | 26.90 % of Control | 60.23 % of Control | 83.86 % of Control | 40.59 % of Control | 48.61 % of Control | 75.70 % of Control | 86.76 % of Control | 98.14 % of Control | – |
| COc1cc2ncnc(Nc3ccc(F)c(Cl)c3)c2cc1OCCCN1CCOCC1 [Gefitinib] | – | – | – | – | – | – | – | – | – | – | IC50 (colon cancer COLO-205): 6.97 µM |
